Like-named read-outs stand apart in the source and are kept apart here.
What was measured:
HCV replicon cells = assay: HCV replicon FRET / luciferase assay; assay type: cell-based; conditions: 50% reduction in FRET or luciferase activity in HCV replicon cells, read-out: EC50
Protocol: FRET Assay Preparation. The HCV FRET screening assay was performed in 96-well cell culture plates. The FRET peptide (Anaspec, Inc.) (Taliani et al., Anal. Biochem. 1996, 240, 60-67) contains a fluorescence donor, EDANS, near one end of the peptide and an acceptor, DABCYL, near the other end. The fluorescence of the peptide is quenched by […] resonance energy transfer (RET) between the donor and the acceptor, but as the NS3 protease cleaves the peptide the products are released from RET quenching and the fluorescence of the donor becomes apparent. The assay reagent was made as follows: 5× cell Luciferase cell culture lysis reagent from Promega (#E153A) diluted to 1× with dH2O, NaCl added to 150 mM final, the FRET peptide diluted to 20 μM final from a 2 mM stock.
To prepare plates, HCV replicon cells, with or without a Renilla luciferase reporter gene, were trypsinized and plated in a 96-well plate with titrated test compounds added in columns 3 through 12; columns 1 and 2 contained a control compound (HCV control inhibitor), and the bottom row contained cells with DMSO only. The plates were then placed in a CO2 incubator at 37° C.
Assays. Subsequent to addition of the test compounds described above (FRET Assay Preparation), at various times the plate was removed and Alamar blue solution (Trek Diagnostics, #00-100) was added to measure cellular toxicity. After reading in a Cytoflour 4000 instrument (PE Biosystems), plates were rinsed with PBS and then used for FRET assay by the addition of 30 ul of the FRET peptide assay reagent described above (FRET Assay Preparation) per well. The plate was then placed into the Cytoflour 4000 instrument which had been set to 340 excite/490 emission, automatic mode for up to 20 cycles and the plate read in a kinetic mode. Typically, the signal to noise using an endpoint analysis after the reads was at least three-fold. Alternatively, after Alamar blue reading, plates were rinsed with PBS, then used for luciferase assay using the Promega Dual-Glo Luciferase Assay System or the Promega EnduRen Live Cell Substrate assay.
Compound analysis was performed by quantification of the relative HCV replicon inhibition and the relative cytotoxicity values. To calculate cytoxicity values, the average Alamar Blue fluorescence signals from the control wells were set as 100% non-toxic. The individual signals in each of the compound test wells were then divided by the average control signal and multiplied by 100% to determine […]. To calculate the HCV replicon inhibition values, an average background value was obtained from the two wells containing the highest amount of HCV control inhibitor at the end of the assay period. These numbers were similar to those obtained from naïve Huh-7 cells. The background numbers were then subtracted from the average signal obtained from the control wells and this number was used as 100% activity. The individual signals in each of the compound test wells were then divided by the averaged control values after background subtraction and multiplied by 100% to determine percent activity. EC50 values were calculated as the concentration which caused a 50% reduction in FRET or luciferase activity. The two numbers generated for the compound plate, percent cytoxicity and percent activity, were used to determine compounds of interest for further analysis.

HCV NS5B = target: T1, HCV NS5B (Hepatitis C virus genotype 1b, UniProt Q9WMX2); assay: HCV NS5B RdRp enzyme assay (standard / modified); assay type: biochemical; conditions: HCV RdRp genotype 1b; standard or modified assay not specified; read-out: IC50
T1 construct: The protein was expressed with an 18 amino acid C-terminal truncation to enhance the solubility; made in house; host or cells: E. coli BL21(DE3)
Protocol: HCV NS5B RdRp cloning, expression, and purification. The cDNA encoding the NS5B protein of HCV, genotype 1b, was cloned into the pET21a expression vector. The protein was expressed with an 18 amino acid C-terminal truncation to enhance the solubility. The E. coli competent cell line BL21(DE3) was used for expression of the protein. Cultures were grown at 37° C. for ˜4 hours until the cultures reached an optical density of 2.0 at 600 nm. The cultures were cooled to 20° C. and induced with 1 mM IPTG. Fresh ampicillin was added to a final concentration of 50 μg/ml and the cells were grown overnight at 20° C.
Cell pellets (3 L) were lysed for purification to yield 15-24 mgs of purified NS5B. The lysis buffer consisted of 20 mM Tris-HCl, pH 7.4, 500 mM NaCl, 0.5% triton X-100, 1 mM DTT, 1 mM EDTA, 20% glycerol, 0.5 mg/ml lysozyme, 10 mM MgCl2, 15 ug/ml deoxyribonuclease I, and Complete TM protease inhibitor tablets (Roche). After addition of the lysis buffer, frozen cell pellets were resuspended using a tissue homogenizer. To reduce the viscosity of the sample, aliquots of the lysate were sonicated on ice using a microtip attached to a Branson sonicator. The sonicated lysate was centrifuged at 100,000×g for 1 hr at 4° C. and filtered through a 0.2 μm filter unit (Corning).
The protein was purified using two sequential chromatography steps: Heparin sepharose CL-6B and polyU sepharose 4B (Pharmacia). The chromatography buffers were identical to the lysis buffer but contained no lysozyme, deoxyribonuclease I, MgCl2 or protease inhibitor and the NaCl concentration of the buffer was adjusted according to the requirements for charging the protein onto the column. Each column was eluted with a NaCl gradient which varied in length from 5-50 column volumes depending on the column type. After the final chromatography step, the resulting purity of the enzyme is >90% based on SDS-PAGE analysis. The enzyme was aliquoted and stored at −80° C.
Standard HCV NS5B RdRp enzyme assay. HCV RdRp genotype 1b assays were run in a final volume of 60 μl in 96 well plates (Corning 3600). The assay buffer is composed of 20 mM Hepes, pH 7.5, 2.5 mM KCl, 2.5 mM MgCl2, 1 mM DTT, 1.6 U RNAse inhibitor (Promega N2515), 0.01 mg/ml BSA (Sigma B6917), and 2% glycerol. All compounds were serially diluted (3-fold) in DMSO and diluted further in water such that the final concentration of DMSO in the assay was 2%. HCV RdRp genotype 1b enzyme was used at a final concentration of 28 nM. A polyA template was used at 6 nM, and a biotinylated oligo-dT12 primer was used at 180 nM final concentration. Template was obtained commercially (Amersham 27-4110). Biotinylated primer was prepared by Sigma Genosys. 3H-UTP was used at 0.6 μCi (0.29 μM total UTP). Reactions were initiated by the addition of enzyme, incubated at 30 ° C. for 60 min, and stopped by adding 25 μl of 50 mM EDTA containing SPA beads (4 μg/μl, Amersham RPNQ 0007). Plates were read on a Packard Top Count NXT after >1 hr incubation at room temperature.
Modified HCV NS5B RdRp enzyme assay. A modified enzyme assay was performed essentially as described for the standard enzyme assay except for the following: The biotinylated oligo dT12 primer was precaptured on streptavidin-coated SPA beads by mixing primer and beads in assay buffer and incubating at room temperature for one hour. Unbound primer was removed after centrifugation. The primer-bound beads were resuspended in 20 mM Hepes buffer, pH 7.5 and used in the assay at final concentrations of 20 nM primer and 0.67 μg/μl beads. Order of addition in the assay: enzyme (1.75 nM) was added to diluted compound followed by the addition of a mixture of template (0.36 nM), 3H-UTP (0.6 μCi, 0.29 μM), and primer-bound beads, to initiate the reaction; concentrations given are final. Reactions were allowed to proceed for 4 hours at 30° C.
IC50 values for compounds were determined using seven different [I]. […]

T1 sequence (Q9WMX2 2420-2992): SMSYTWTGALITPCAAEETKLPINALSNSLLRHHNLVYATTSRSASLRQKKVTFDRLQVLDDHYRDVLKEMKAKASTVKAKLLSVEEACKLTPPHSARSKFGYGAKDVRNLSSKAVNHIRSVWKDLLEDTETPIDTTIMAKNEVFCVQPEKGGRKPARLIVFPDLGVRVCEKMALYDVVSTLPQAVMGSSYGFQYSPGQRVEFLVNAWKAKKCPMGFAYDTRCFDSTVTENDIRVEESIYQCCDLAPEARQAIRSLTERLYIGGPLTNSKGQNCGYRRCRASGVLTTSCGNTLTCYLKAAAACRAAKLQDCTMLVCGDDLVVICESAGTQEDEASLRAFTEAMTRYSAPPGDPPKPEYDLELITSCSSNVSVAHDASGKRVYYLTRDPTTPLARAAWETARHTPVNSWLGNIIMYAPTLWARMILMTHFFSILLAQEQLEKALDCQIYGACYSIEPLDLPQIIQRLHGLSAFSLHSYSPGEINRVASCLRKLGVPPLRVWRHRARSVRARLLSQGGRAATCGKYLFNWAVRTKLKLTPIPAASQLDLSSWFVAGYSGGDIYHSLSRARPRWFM

Structure (SMILES)	EC50 (HCV replicon cells; Hepatitis C virus) [nM]	IC50 (HCV NS5B) [nM]	EC50 (HCV replicon cells) [nM]
COc1ccc2c(c1)[C@@H]1C[C@]1(C(=O)N1C3CCCC1C(=O)N(C)C3=O)Cn1c-2c(C2CCCCC2)c2ccc(C(=O)NS(=O)(=O)N(C)C)cc21	2.4 to 500	2.4 to 500	
COc1ccc2c(c1)C1CC1(C(=O)N1C3CC1CN(C)C3)Cn1c-2c(C2CCCCC2)c2ccc(C(=O)NS(=O)(=O)N3CCOCC3)cc21 (centres unmarked)	2.4 to 500	2.4 to 500	
COc1ccc2c(c1)C1CC1(C(=O)N1CC3CN(C)CC(C1)N3)Cn1c-2c(C2CCCCC2)c2ccc(C(=O)NS(=O)(=O)N(C)C)cc21 (centres unmarked)	2.4 to 500	2.4 to 500	
COc1ccc2c(c1)C1CC1(C(=O)N1C3COC[C@@H]1CN(C)C3)Cn1c-2c(C2CCCCC2)c2ccc(C(=O)NS(=O)(=O)CC(F)(F)F)cc21 (some centres unmarked)	2.4 to 500	2.4 to 500	
COc1ccc2c(c1)C1CC1(C(=O)N1C[C@@H]3C[C@H]1CN3C(=O)OC(C)(C)C)Cn1c-2c(C2CCCCC2)c2ccc(C(=O)NS(=O)(=O)N(C)C)cc21 (some centres unmarked)	2.4 to 500	2.4 to 500	
CCN(C)S(=O)(=O)NC(=O)c1ccc2c(C3CCCCC3)c3n(c2c1)CC1(C(=O)N2C4CC2CN(C)C4)CC1c1cc(OC)ccc1-3 (centres unmarked)	2.4 to 500	2.4 to 500	
COc1ccc2c(c1)C1CC1(C(=O)N1C3CC1CN(Cc1ccccc1)C3)Cn1c-2c(C2CCCCC2)c2ccc(C(=O)NS(=O)(=O)CC(F)(F)F)cc21 (centres unmarked)	500 to 5000	2.4 to 500	
COc1ccc2c(c1)C1CC1(C(=O)N1CCN3CCC1CC3)Cn1c-2c(C2CCCCC2)c2ccc(C(=O)NS(=O)(=O)C3CC3)cc21 (centres unmarked) [drawing 71]		2.4 to 500	2.4 to 500
COc1ccc2c(c1)C1CC1(C(=O)N1C[C@H]3C[C@@H]1CN3CC(C)C)Cn1c-2c(C2CCCCC2)c2ccc(C(=O)NS(=O)(=O)C3CC3)cc21 (some centres unmarked)	2.4 to 500	2.4 to 500	
COc1ccc2c(c1)[C@@H]1C[C@]1(C(=O)N1[C@@H]3C[C@H]1CN(C)C3)Cn1c-2c(C2CCCCC2)c2ccc(C(=O)NS(=O)(=O)N(C)C)cc21	2.4 to 500	2.4 to 500	
CCC(C)S(=O)(=O)NC(=O)c1ccc2c(C3CCCCC3)c3n(c2c1)CC1(C(=O)N2C4CC2CN(Cc2ccccc2)C4)CC1c1cc(OC)ccc1-3 (centres unmarked)	2.4 to 500	2.4 to 500	
COc1ccc2c(c1)C1CC1(C(=O)N1CC3COCC(C1)N3C)Cn1c-2c(C2CCCCC2)c2ccc(C(=O)NS(=O)(=O)N(C)C)cc21 (centres unmarked)	2.4 to 500	2.4 to 500	
COc1ccc2c(c1)C1CC1(C(=O)N1C3CC1CN(C)C3)Cn1c-2c(C2CCCCC2)c2ccc(C(=O)NS(=O)(=O)N3CCN(C)CC3)cc21 (centres unmarked)	2.4 to 500	2.4 to 500	
